Measured values: US11071731B2, “Allosteric modulators of the mu opioid receptor” (Chiromics, LLC, priority 2017, dated 2021)

Columns and labels:
[1] = target: T1, mu opioid receptor (MOR) (Homo sapiens, UniProt P35372); assay: PathHunter β-arrestin recruitment assay, PAM mode with EC20 endomorphin-1; format: cell-based; settings: for EC50: read-out: β-arr. EC50; for inhibition of β-arrestin recruitment at a static concentration of 5 μM: printed in β-arr. EC50 column
Experimental: The effects of MOR PAMs and MOR SAMs on receptor activity were assayed using the PathHunter enzyme complementation assay technology (DiscoveRx, CA). A description of the technology employed is as follows.
Beta-Arrestin Pathway: The PathHunter β-arrestin assay monitors the activation of a GPCR in a homogenous, non-imaging assay format using a technology developed by DiscoveRx called Enzyme Fragment Complementation (EFC) with beta-galactosidase (β-Gal) as the functional reporter. […] EA is fused to β-Arrestin and ED is fused to the GPCR of interest. When the GPCR is activated and β-arrestin is recruited to the receptor, ED and EA complementation occurs, restoring β-gal activity, which is measured using chemiluminescent PathHunter Detection Reagents.
In this manner an EC50 for each test compound, and percent maximal response for each test compound, were determined for both the β-arrestin and cAMP pathways. Though the pharmacological effects of a given signal bias can be hypothesized (Raehal et al. (2011) Pharmacol. Rev. 63:1001-1019), it is not possible to know with certainty which bias ratio will be most advantageous in a clinical setting. […] Kenakin 2015a, supra. The information associated with the compounds detailed herein is the first large data set available for the prediction of ligand bias for an MOR PAM.

[2] = target: T1, mu opioid receptor (MOR); assay: Hit Hunter cAMP signaling assay (adenylyl cyclase inhibition), PAM mode with EC20 endomorphin-1; format: cell-based
[3] = maximal response, β-arrestin recruitment
[4] = cAMP EC50, adenylyl cyclase inhibition
[5] = maximal response, adenylyl cyclase inhibition
[6] = maximal response for β-arrestin recruitment
[7] = maximal response for adenylyl cyclase inhibition
[8] = adenylyl cyclase inhibition, read-out: cAMP EC50
[9] = read-out: cAMP EC50, adenylyl cyclase inhibition

T1 sequence (P35372 whole entry): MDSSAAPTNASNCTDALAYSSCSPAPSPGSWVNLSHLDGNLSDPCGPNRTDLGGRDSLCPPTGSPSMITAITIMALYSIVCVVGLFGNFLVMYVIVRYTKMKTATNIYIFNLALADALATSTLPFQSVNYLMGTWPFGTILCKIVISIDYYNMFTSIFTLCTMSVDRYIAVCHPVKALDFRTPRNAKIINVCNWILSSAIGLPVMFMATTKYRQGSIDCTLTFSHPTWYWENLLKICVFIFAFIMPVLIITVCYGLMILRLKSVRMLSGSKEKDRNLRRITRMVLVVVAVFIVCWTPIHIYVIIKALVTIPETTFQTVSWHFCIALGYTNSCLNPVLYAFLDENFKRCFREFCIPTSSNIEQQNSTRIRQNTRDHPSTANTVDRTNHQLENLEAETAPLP

SMILES | EC50 ([1]; β-arrestin recruitment) | β-arr Max. Resp. [1, 6] | inhibition of β-arrestin recruitment at a static concentration of 5 μM [1] | further results
COc1ccc(C2CCCCN2c2nc(Cl)c(C#N)cc2F)cc1Br (stereo not drawn) [compound 449] | > 2100 nM |  |  | β-arr Max. Resp. [1, 3]: F (F represents a maximal response of > 60%); EC50 [2, 4]: > 2100 nM; cAMP Max. Resp. [2, 5]: D (D represents a maximal response of < 40%)
CC[C@@H]1CCCN(c2nc(Cl)ncc2F)[C@@H]1c1ccc(OC)c(Br)c1 (relative stereo) [compound 250] | > 2100 nM | F (F represents a maximal response of > 60%) |  | EC50 [2, 4]: > 2100 nM; cAMP Max. Resp. [2, 7]: D (D represents a maximal response of < 40%)
Fc1cnc(Cl)nc1N1CCCCC1c1ccc2nccn2c1 (stereo not drawn) [compound 421] | < 700 nM |  |  | β-arr Max. Resp. [1, 3]: D (D represents a maximal response of < 40%); EC50 [2, 4]: < 700 nM; cAMP Max. Resp. [2, 5]: D (D represents a maximal response of < 40%)
Fc1ccc(C2CCCCN2Cc2cccc(Cl)n2)cc1Cl (stereo not drawn) [compound 1] | < 700 nM | F (F represents a maximal response of > 60%) |  | β-arr. Max Resp. ([1]; maximal response for β-arrestin recruitment, Table 3): 138; EC50 ([1]; β-arrestin recruitment, Table 3): 572 nM; EC50 ([2]; cAMP EC50 (nM), adenylyl cyclase inhibition, Table 3): 186 nM; EC50 [2, 4]: < 700 nM; cAMP Max. Resp. [2, 7]: F (F represents a maximal response of > 60%); cAMP Max Resp. ([2]; maximal response for adenylyl cyclase inhibition, Table 3): 63
CC1CCN(S(=O)(=O)c2ccc(Cl)cc2)C1c1cccc(Cl)c1 (stereo not drawn) [Compound 107] | > 2100 nM | F (F represents a maximal response of > 60%) |  | EC50 [2, 8]: > 2100 nM; cAMP Max. Resp. [2, 7]: D (D represents a maximal response of < 40%)
[2H]C1(c2ccc(F)c(Br)c2)C(F)CCCN1S(=O)(=O)Cc1ccccc1Cl (stereo not drawn) [Compound 36] |  |  | G (G represents < 50% inhibition of β-arrestin recruitment at a static concentration of 5 μM, for compounds that were not tested for adenylyl cyclase inhibition) | 
FC(F)(F)c1cccc(C2CCCCN2Cc2cncc(Cl)c2)n1 (stereo not drawn) [compound 143] | > 2100 nM | D (D represents a maximal response of < 40%) |  | EC50 [2, 4]: > 2100 nM; cAMP Max. Resp. [2, 7]: D (D represents a maximal response of < 40%)
COc1ccc(C2CC(C)CN2c2nc(Cl)ncc2F)cc1Br (stereo not drawn) [compound 237] | > 2100 nM | E (E represents a maximal response of 40-60%) |  | EC50 [2, 8]: > 2100 nM; cAMP Max. Resp. [2, 7]: D (D represents a maximal response of < 40%)
Fc1cnc(Cl)nc1N1CCCCC1c1cc(C(F)(F)F)ccn1 (stereo not drawn) [compound 278] | > 2100 nM | F (F represents a maximal response of > 60%) |  | EC50 [2, 4]: 700 to 2100 nM; cAMP Max. Resp. [2, 7]: F (F represents a maximal response of > 60%)
Fc1ccc(C2CC=CCN2c2nc(Cl)ncc2F)cc1Br (stereo not drawn) [compound 244] | < 700 nM | F (F represents a maximal response of > 60%) |  | EC50 [2, 8]: < 700 nM; cAMP Max. Resp. [2, 7]: D (D represents a maximal response of < 40%)
FC(F)(F)c1cccc(C2CCCCN2c2cccc(Cl)c2)n1 (stereo not drawn) [compound 459] | > 2100 nM |  |  | β-arr Max. Resp. [1, 3]: F (F represents a maximal response of > 60%); EC50 [2, 8]: > 2100 nM; cAMP Max. Resp. [2, 5]: D (D represents a maximal response of < 40%)
COc1ccc(C2CCCCN2S(=O)(=O)c2ccc(Cl)cc2)cc1Br (single isomer, unassigned) [compound 5] | > 2100 nM | D (D represents a maximal response of < 40%) |  | EC50 [2, 4]: > 2100 nM; cAMP Max. Resp. [2, 7]: D (D represents a maximal response of < 40%)
[2H]C1(c2ccc(F)c(Br)c2)C(F)CCCN1S(=O)(=O)Cc1ccccc1 (stereo not drawn) [Compound 35] |  |  | G (G represents < 50% inhibition of β-arrestin recruitment at a static concentration of 5 μM, for compounds that were not tested for adenylyl cyclase inhibition) | 
COc1ccc(C2CCCN2S(=O)(=O)c2ccc(Cl)cc2)cc1Br (stereo not drawn) [compound 41] | > 2100 nM | F (F represents a maximal response of > 60%) |  | 
COc1ccc(C2CCN2S(=O)(=O)c2ccc(Cl)cc2)cc1Br (stereo not drawn) [compound 40] | > 2100 nM | D (D represents a maximal response of < 40%) |  | 
COc1ccc(C2CCCCN2S(=O)(=O)c2ccc(Cl)cc2)cc1Br (racemic) [compound 4] | > 2100 nM | F (F represents a maximal response of > 60%) |  | 
O=S(=O)(c1ccc2ccccc2c1)N1CCCCC1c1cccc(C(F)(F)F)c1 (stereo not drawn) [Compound 20] |  |  | G (G represents < 50% inhibition of β-arrestin recruitment at a static concentration of 5 μM, for compounds that were not tested for adenylyl cyclase inhibition) | 
COc1ccc(C2CC(C(F)(F)F)CN2S(=O)(=O)c2ccc(Cl)cc2)cc1Br (single isomer, unassigned) [Compound 111] | > 2100 nM | F (F represents a maximal response of > 60%) |  | 

SMILES | EC50 ([1]; β-arrestin recruitment) | β-arr Max. Resp. [1, 6] | inhibition of β-arrestin recruitment at a static concentration of 5 μM [1] | further results
Cc1cccc(C2CCCCN2S(=O)(=O)c2ccc(Cl)cc2)n1 (stereo not drawn) [compound 46] |  |  | G (G represents < 50% inhibition of β-arrestin recruitment at a static concentration of 5 μM, for compounds that were not tested for adenylyl cyclase inhibition) | 
COc1ccc(C2CC(F)CN2S(=O)(=O)c2ccc(Cl)cc2)cc1Br (single isomer, unassigned) [Compound 112] |  |  | G (G represents < 50% inhibition of β-arrestin recruitment at a static concentration of 5 μM, for compounds that were not tested for adenylyl cyclase inhibition) | 
[2H]C1(c2ccc(F)c(Br)c2)C(F)CCCN1S(=O)(=O)c1ccc2ccccc2c1 (stereo not drawn) [Compound 31] |  |  | G (G represents < 50% inhibition of β-arrestin recruitment at a static concentration of 5 μM, for compounds that were not tested for adenylyl cyclase inhibition) | 
COc1ccc(C2CC(F)CN2S(=O)(=O)c2ccc(Cl)cc2)cc1Br (single isomer, unassigned) [Compound 114] | > 2100 nM | D (D represents a maximal response of < 40%) |  | 
O=S(=O)(c1ccccc1)N1CCCCC1c1cccc(C(F)(F)F)c1 (stereo not drawn) [Compound 19] |  |  | G (G represents < 50% inhibition of β-arrestin recruitment at a static concentration of 5 μM, for compounds that were not tested for adenylyl cyclase inhibition) | 
COc1ccc(C2C(F)CCN2S(=O)(=O)c2ccc(Cl)cc2)cc1Br (stereo not drawn) [Compound 115] | > 2100 nM | E (E represents a maximal response of 40-60%) |  | 
Fc1cnc(Cl)nc1N1CCCC(F)C1c1cccc(C(F)(F)F)c1 (single isomer, unassigned) [compound 208] |  |  |  | EC50 [2, 9]: 700 to 2100 nM
O=S(=O)(c1ccc(Cl)cc1)N1CCCCC1c1ccccn1 (stereo not drawn) [compound 45] |  |  | G (G represents < 50% inhibition of β-arrestin recruitment at a static concentration of 5 μM, for compounds that were not tested for adenylyl cyclase inhibition) | 
N#Cc1cccc(C2CCCCN2S(=O)(=O)c2ccc(Cl)cc2)n1 (stereo not drawn) [compound 47] |  |  | G (G represents < 50% inhibition of β-arrestin recruitment at a static concentration of 5 μM, for compounds that were not tested for adenylyl cyclase inhibition) | 
[2H]C1(c2ccc(F)c(Br)c2)C(F)CCCN1S(=O)(=O)c1ccccc1 (stereo not drawn) [Compound 30] |  |  | G (G represents < 50% inhibition of β-arrestin recruitment at a static concentration of 5 μM, for compounds that were not tested for adenylyl cyclase inhibition) | 
COc1ccc(C2C(C(F)(F)F)CCN2S(=O)(=O)c2ccc(Cl)cc2)cc1Br (single isomer, unassigned) [Compound 117] | > 2100 nM | F (F represents a maximal response of > 60%) |  | 
COc1ccc(C2N(S(=O)(=O)c3ccc(Cl)cc3)CCC2(F)F)cc1Br (stereo not drawn) [Compound 113] | > 2100 nM | F (F represents a maximal response of > 60%) |  | 
[2H]C1(c2ccc(F)c(Br)c2)C(F)CCCN1S(=O)(=O)c1ccc(OC)cc1 (stereo not drawn) [Compound 39] |  |  | G (G represents < 50% inhibition of β-arrestin recruitment at a static concentration of 5 μM, for compounds that were not tested for adenylyl cyclase inhibition) | 
[2H]C1(c2ccc(F)c(Br)c2)C(F)CCCN1S(=O)(=O)Cc1ccc(Cl)c(Cl)c1 (stereo not drawn) [Compound 34] |  |  | G (G represents < 50% inhibition of β-arrestin recruitment at a static concentration of 5 μM, for compounds that were not tested for adenylyl cyclase inhibition) | 
FC(F)(F)c1cccc(C2CCCCN2Cc2ccc(Cl)cc2)c1 (stereo not drawn) [compound 140] |  |  | G (G represents < 50% inhibition of β-arrestin recruitment at a static concentration of 5 μM, for compounds that were not tested for adenylyl cyclase inhibition) | 
Fc1cnc(Cl)nc1N1CCCC(F)C1c1cccc(C(F)(F)F)c1 (single isomer, unassigned) [compound 209] |  |  |  | EC50 [2, 9]: 700 to 2100 nM
COc1ccc(C2N(S(=O)(=O)c3ccc(Cl)cc3)CCC2(F)F)cc1Br (single isomer, unassigned) [Compound 116] | > 2100 nM | F (F represents a maximal response of > 60%) |  | 
